The results in this text go back to PMC7957578, “N-(1,3,4-Oxadiazol-2-yl)Benzamides as Antibacterial Agents against Neisseria gonorrhoeae” (International Journal of Molecular Sciences, 2021).

Converted amounts (≈) assume the structure as drawn. Where two headings read alike, the source gives them in different places. Bounds are passed on as bounds.

Data set [1] concerns N. gonorrhoeae strain 181. In words: MIC by broth microdilution against N. gonorrhoeae strain 181. The class given is cell-based, Neisseria gonorrhoeae. The conditions noted are these: Neisseria gonorrhoeae; N. gonorrhoeae strain 181; read-out: MIC. How it is done: Briefly, bacteria were grown overnight on chocolate agar II at 37° C in the presence of 5% CO2. Afterwards, a bacterial suspension equivalent to 1.0 McFarland standard was prepared and diluted in brucella broth supplemented with yeast extract, neopeptone, hematin, pyridoxal, and NAD. Test agents were added in the first row of the 96-well plates and serially diluted along the plates. Plates were then incubated at 37° C in the presence of 5% CO2 for 24 h. […] Plates were then incubated at 37 ° C in the presence of 5% CO2 for 24 h. The MBC was categorized as the lowest concentration that reduced bacterial growth by 99.9% [45, 46, 47].
Background: Dilution methods test growth across graded concentrations, often in twofold steps.

In the next data set the test system is S. aureus ATCC 25923. In words: MIC/MBC (CLSI broth microdilution) against S. aureus ATCC 25923. The class given is cell-based. The conditions noted are these: Staphylococcus aureus, ATCC25923, S. aureus ATCC 25923. How it is done:
(§1) The minimum inhibitory concentrations (MICs) of the tested compounds and control drugs, linezolid, vancomycin, and gentamicin, were determined using the broth microdilution method according to the guidelines outlined by the Clinical and Laboratory Standards Institute (CLSI) against clinically relevant bacterial (Staphylococcus aureus, MRSA, Escherichia coli, Enterococcus faecalis and Enterococcus faecium strains. S. aureus, MRSA, E. coli, Enterococcus faecalis and Enterococcus faecium were grown aerobically overnight on tryptone soy agar (TSA) plates at 37° C. Afterwards, a bacterial solution equivalent to 0.5 McFarland standard was prepared and diluted in cation-adjusted Mueller–Hinton broth (CAMHB) (for S. aureus, MRSA, and E. coli) to achieve a bacterial concentration of about 5 × 10^5 CFU/mL. Enterococcus faecalis and Enterococcus faecium 0.5 McFarland standard solution was diluted in tryptone soy broth (TSB) to achieve a bacterial concentration of about 5 × 10^5 CFU/mL. Compounds and control drugs were added in the first row of 96-well plates and serially diluted with the corresponding media containing bacteria. Plates were then incubated as previously described. […] The minimum bactericidal concentration (MBC) was tested by spotting 4 µL from wells with no growth onto TSA plates. Plates were incubated at 37 ° C for at least 18 h before recording the MBC. The MBC was categorized as the lowest concentration that reduced bacterial growth by 99.9% [45, 46, 47].

Data set [2] has as its system E. coli BW25113 (wild-type strain). Kind of data set: MIC/MBC (CLSI broth microdilution) against E. coli BW25113 wild type. The class given is cell-based, Escherichia coli. The conditions noted are these: E. coli BW25113 wild-type strain. How it is done:
as §1

Data set [3] deals with E. coli JW55031 (TolC Mutant). Kind of data set: MIC/MBC (CLSI broth microdilution) against E. coli TolC mutant. The class given is cell-based. Particulars: Escherichia coli. How it is done: as §1
The nature of data set [4]: Caco-2 bidirectional permeability assay. Type of data set: in vitro ADME, human. The conditions noted are these: human, Caco-2. From the text:
(§2) Oral bioavailability is a highly important consideration when developing bioactive molecules as therapeutic agents. A critical factor of oral bioavailability is human intestinal absorption. The Caco-2 bidirectional permeability assay is the most widely used in vitro model for predicting if a bioactive molecule can have adequate systemic absorption. Thus, we selected HSGN-238 to act as a model to analyze the drug-like properties of newly synthesized N-(1,3,4-oxadiazol-2-yl)benzamides.
(§3) Assay and data analysis were performed by Eurofins Panlabs (MO, USA) according to a previously reported protocol. The apparent permeability coefficient (Papp) of the tested agents was calculated using the equation below: Papp(cm/s)=VR∗CR,end/Δt∗1/A∗(CD,mid−CR,mid), where VR is the volume of the receiver chamber. CR,end is the concentration of the test compound in the receiver chamber at the end time point, Δt is the incubation time, and A is the surface area of the cell monolayer. CD,mid is the calculated mid-point concentration of the test compound in the donor side, which is the mean value of the donor concentration at 0 minutes and the donor concentration at the end time point. CR,mid is the mid-point concentration of the test compound in the receiver side, which is one half of the receiver concentration at the end time point. Concentrations of the test compound were expressed as peak areas of the test compound.
(In general: Caco-2 cells form a polarised layer with tight junctions and transporters.)

For a further data set, the system named is Caco-2 bilayers. Kind of data set: Caco-2 bidirectional permeability assay. Particulars: Caco-2 permeability classification. The class given is in vitro ADME, human.
From the text: as §2, §3

By MIC is commonly meant the lowest concentration that inhibits growth of the organism. In general, MBC refers to the smallest concentration meeting the test's criterion for killing. By Papp A→B is commonly meant the apparent permeability from the apical to the basolateral side of a cell layer. The low end stands for slow passage, the high end for fast passage. In general, Papp B→A refers to the apparent permeability from the basolateral to the apical side of a cell layer. As for `O=C(Nc1nnc(-c2ccc(Cl)s2)o1)c1ccc(OC(F)(F)F)cc1` [HSGN-238, N-(5-(5-Chlorothiophen-2-yl)-1,3,4-oxadiazol-2-yl)-4-(trifluoromethoxy)benzamide], the MIC was 0.125 µg/mL (≈ 0.321 µM) in data set [1]; 0.25 µg/mL (≈ 0.641 µM) with S. aureus ATCC 25923 (read-out: MIC); more than 8 µg/mL in data set [2]; more than 8 µg/mL in data set [2] (Escherichia coli, read-out: MIC); 0.06 µg/mL (≈ 0.154 µM) in data set [3]. The MBC in the data set on S. aureus ATCC 25923 (read-out: MBC) is more than 64 µg/mL; in data set [2] (Escherichia coli, read-out: MBC), more than 8 µg/mL; in data set [3], 32 µg/mL (≈ 82.1 µM). The Papp A→B in data set [4] (apical to basolateral) worked out at 82.3 ×10⁻⁶ cm/s. In addition, the Papp B→A in data set [4] (basolateral to apical) was 32.9 ×10⁻⁶ cm/s. In addition, in the data set with Caco-2 bilayers, the “Notes (permeability class)” value was “High Permeability”.
